The series can be described thus: photoluminescence quantum yield (fraction); solvent given as SMILES.

Regarding `COc1ccc(-c2csc(/C(C#N)=C\Nc3ccc(C#N)cc3)n2)cc1`, the photoluminescence quantum yield runs as follows: (in CC#N) 0.001; (in CCO) 0.001; (in CN(C)C=O) 0.003; (in Cc1ccccc1) 0.003; (in ClCCl) 0.001.

For `CCC(C)(C)c1ccc2c(c1)C(CC)(CC)c1cc(-c3ccc4c(c3)C(CC)(CC)c3cc(C(C)(C)CC)ccc3-4)ccc1-2`, under “in C1CCCCC1”, the photoluminescence quantum yield worked out at 0.85.

In turn, `c1ccc2c(c1)sc1c3ccccc3c3ncncc3c21` returned a photoluminescence quantum yield (in ClCCl) of 0.08.

Consider `CC(C)(C)c1ccc2c(c1)[nH]c1c3[nH]c4cc(C(C)(C)C)ccc4c3c3nsnc3c21`, for which the photoluminescence quantum yield reads like this: (in CN(C)C=O) 0.09; (in Cc1ccccc1) 0.11; (in ClCCl) 0.12.

For `CCCCN1C(=O)c2cc(Oc3ccc(C(C)(C)C)cc3)c3c4c(Oc5ccc(C(C)(C)C)cc5)cc5c(=O)n6c(c7cc(Oc8ccc(C(C)(C)C)cc8)c(c8c(Oc9ccc(C(C)(C)C)cc9)cc(c2c38)C1=O)c4c57)=Cc1cccc[n+]1[B-]6(F)F`, the photoluminescence quantum yield is 0.564 (in C1CCOC1), 0.451 (in Cc1ccccc1) and 0.5 (in ClCCl).

Take `c1ccc(-c2ncc3ccccn23)cc1`: under “in ClC(Cl)Cl”, the photoluminescence quantum yield was determined as 0.05.

As to `CCCCc1c2c(nc3ccccc13)-c1cc3c(cc1CC2)-c1nc2ccccc2c(CCCC)c1CC3`, the photoluminescence quantum yield (in ClC(Cl)Cl) amounted to 0.697.

For `COc1ccc(-c2cc3c(ccc4sc5ccc6sc(-c7ccc(C#N)cc7)cc6c5c43)s2)cc1`, the photoluminescence quantum yield (in ClCCl) was found to be 0.09.

For the molecule `CCCC(=O)c1c(OCOC)c(OCOC)c(C(=O)CCC)c2c1OCO2`, the photoluminescence quantum yield (in CC#N) came out at 0.41.

For `CC(C)(C)c1cc(-c2cc3nc4c5ccc(N6c7ccccc7Oc7ccccc76)cc5c5cc(N6c7ccccc7Oc7ccccc76)ccc5c4nc3cc2-c2cc(C(C)(C)C)cc(C(C)(C)C)c2)cc(C(C)(C)C)c1`, the photoluminescence quantum yield (in c1ccc2c(c1)c1ccccc1n2-c1ccc(-c2ccc(-n3c4ccccc4c4ccccc43)cc2)cc1) was determined as 0.83.

Under “in ClCCl”, `CCCCn1c(-c2ccc(-c3nnc(-c4ccccc4)o3)cc2)nc(-c2ccccc2)c1-c1ccccc1` registered a photoluminescence quantum yield of 0.21.

As for `Cc1cnc(NC(=O)C2=C([O-])c3ccccc3S(=O)(=O)N2C)s1`, the photoluminescence quantum yield is, setting by setting: (in CC#N) 0.00144; (in CCCCO) 0.0114; (in CCCO) 0.00864; (in CCO) 0.00427; (in CO) 0.00252.

`CC1=CC(/C=C/c2ccc3ccc4cccc5ccc2c3c45)=[N+]2C1=C(c1ccccc1)c1c(C)cc(/C=C/c3ccc4ccc5cccc6ccc3c4c56)n1[B-]2(F)F`: the photoluminescence quantum yield (in CC1CCCO1) came out at 0.8.

Turning to `CCC1=C(C)C2=Cc3c(I)c(I)c(I)n3[B-](F)(F)[N+]2=C1C`, the photoluminescence quantum yield stood at 0.065 (in C1CCCCC1); 0.029 (in CC(C)=O); 0.037 (in CCO); 0.037 (in CCOC(C)=O); 0.032 (in CO); 0.021 (in OCC(F)(F)F).

For the molecule `CC1(C)CCc2c(c3ccccc3c3nc4c5c(c6ccccc6c4nc23)OC(C)(C)CC5)O1`, the photoluminescence quantum yield (in C1CCCCC1) turned out to be 0.38; the photoluminescence quantum yield (in C1CCOC1) amounted to 0.34; the photoluminescence quantum yield (in C1COCCO1) worked out at 0.26; the photoluminescence quantum yield (in CC#N) was found to be 0.61; the photoluminescence quantum yield (in CC(C)O) amounted to 0.53; the photoluminescence quantum yield (in CCCCCC) is 0.31. Also, the photoluminescence quantum yield was 0.57 (in CN(C)C=O), 0.62 (in CO), 0.43 (in ClC(Cl)Cl) and 0.42 (in c1ccccc1).

Consider `C=CC(=O)Oc1ccc2cc(C=C)c(=O)oc2c1`, for which the photoluminescence quantum yield (in CC#N) is 0.19.

Molecule `CCOC(=O)c1c2c3c(cccc3c3cc4c(cc13)[Si](C)(C)O[Si]4(C)C)N(C)C2=O` yielded a photoluminescence quantum yield (in CC#N) of 0.51.

Molecule `c1ccc(-c2nc(-c3ccc(N4c5ccccc5Sc5ccccc54)cc3)nn2-c2ccc(N3c4ccccc4Sc4ccccc43)cc2)nc1` displayed a photoluminescence quantum yield (in ClCCl) of 0.0129.

As to `Cc1cscc1-c1cc2c3cc(-c4cscc4C)c4nc(C(F)(F)C(F)(F)C(F)(F)F)nc5c(-c6cscc6C)cc(c6cc(-c7cscc7C)c7nc(C(F)(F)C(F)(F)C(F)(F)F)nc1c7c26)c3c45`, the photoluminescence quantum yield (in C1CCOC1) worked out at 0.33.

`COc1cc(/C=C/c2ccccn2)c(OC)cc1C=O`: the photoluminescence quantum yield reads like this: (in C1CCOC1) 0.19; (in CC#N) 0.24; (in CN(C)C=O) 0.21; (in Cc1ccccc1) 0.16; (in ClCCl) 0.36.

On to `Cc1ccc(-c2cc(/C=C/c3ccc(N(c4ccccc4)c4ccccc4)cc3)c(C#N)c(N3CCCCC3)c2)cc1`, for which the photoluminescence quantum yield (in CS(C)=O) is 0.58.

`CC(=O)[B-]1(C(C)=O)OC(C)=CC(c2ccc3ccccc3c2)=[O+]1` yielded a photoluminescence quantum yield (in CC#N) of 0.13 and a photoluminescence quantum yield (in ClC(Cl)(Cl)Cl) of 0.16.

Turning to `COc1cc(OC)cc(C2=C3C(C)=C(I)C(C)=[N+]3[B-](F)(F)n3c(/C=C/c4c[nH]c5ccc([N+](=O)[O-])cc45)c(I)c(C)c32)c1`, the photoluminescence quantum yield reads like this: (in C1CCOC1) 0.32; (in CS(C)=O) 0.19; (in ClCCl) 0.37.

In turn, `CC(C)(C)c1ccc(-c2c(-c3ccc(N(c4ccccc4)c4ccccc4)cc3)c(C#N)c(-c3ccc(N(c4ccccc4)c4ccccc4)cc3)c(-c3ccc(C(C)(C)C)cc3)c2-c2ccc(C(C)(C)C)cc2)cc1` registered a photoluminescence quantum yield (in C1CCOC1) of 0.686.

Take `COC(=O)C[C@H](Cc1c[nH]c2ccccc12)NC(=O)[C@H](CC(=O)N[C@@H](CC1=CCc2ccccc21)C(=O)OC)NC(=O)OC(C)(C)C`: the photoluminescence quantum yield is, setting by setting: (in CC#N) 0.37; (in CCOC(C)=O) 0.22; (in CO) 0.06.

Molecule `CCOC(=O)c1ccc(C2CC(c3cccc4ccccc34)=NN2c2ccc(F)cc2)cc1` (centres undefined) registered a photoluminescence quantum yield (in ClCCl) of 0.191.

With `Oc1ccc(Br)cc1-c1nc2c(c3c1-c1ccccc1CC3)-c1ccccc1CC2`, the photoluminescence quantum yield (in ClCCl) amounted to 0.01.

In the case of `CCNc1ccc2c(C(F)(F)F)cc(=O)oc2c1`, the photoluminescence quantum yield is, setting by setting: (in C1CCC2CCCCC2C1) 0.72; (in C1CCCCC1) 0.74; (in CC1CCCCC1) 0.77; (in CC#N) 0.56; (in CC(C)=O) 0.53; (in CC(C)O) 0.54. For the same molecule, the photoluminescence quantum yield came out at 0.75 (in CCC(C)CC); 0.77 (in CCCC(C)C); 0.76 (in CCCCCC); 0.54 (in CCCCCCO); 0.53 (in CCCCO); 0.47 (in CCO). Further, the photoluminescence quantum yield by setting is: (in CCOC(C)=O) 0.61; (in CO) 0.46.

Regarding `C1=Cc2ccccc2C(=Cc2ccc(C=C3c4ccccc4-c4ccccc43)cc2)c2ccccc21`, the photoluminescence quantum yield (in C1CCOC1) is 4e-05.

Take `CCOC(=O)c1ccc(C2CC(c3cccc4ccccc34)=NN2c2ccc(C#N)cc2)cc1` (centres undefined): the photoluminescence quantum yield (in ClCCl) was 0.258.

For the setting “in Cc1ccccc1”, `CCCCCCCCOC(=O)c1ccc(-c2cc3ccc4cc(-c5ccc(C(=O)OCCCCCCCC)cc5)cc5ccc(c2)c3c45)cc1` showed a photoluminescence quantum yield of 0.33.

Consider `c1ccc2c(c1)c1ccccc1n2-c1ccc(-c2ccc(-c3ccc(-n4c5ccccc5c5ccccc54)nc3-n3c4ccccc4c4ccccc43)nn2)c(-n2c3ccccc3c3ccccc32)n1`, for which the photoluminescence quantum yield (in Cc1ccccc1) stood at 0.36.

`CN(C)c1ccc(/C=C/c2cnc(-c3ccncc3)o2)cc1` yielded a photoluminescence quantum yield (in ClCCl) of 0.65.

`F[B-]1(F)OC(c2ccc(N3CCCC3)cc2)=Cc2cccc[n+]21` gave a photoluminescence quantum yield (in ClC(Cl)Cl) of 0.542.

For the molecule `NS(=O)(=O)c1ccc(N2N=C(c3ccc(O)cc3)CC2c2ccc(Br)cc2)cc1` (centres undefined), the photoluminescence quantum yield by setting is: (in C1CCOC1) 0.7; (in C1COCCO1) 0.75; (in CC#N) 0.65; (in CC(C)O) 0.57; (in CCO) 0.5; (in CCOC(C)=O) 0.75. The same molecule registered a photoluminescence quantum yield (in CN(C)C=O) of 0.68, a photoluminescence quantum yield (in CO) of 0.38, a photoluminescence quantum yield (in CS(C)=O) of 0.69 and a photoluminescence quantum yield (in O) of 0.56.

For the setting “in ClCCl”, `COc1cc2c(cc1OC)C1=C[C@H](c3ccc(Cl)cc3)C3(C(C#N)=C(C#N)N1CC2)c1cc(Br)ccc1-c1ccc(Br)cc13` displayed a photoluminescence quantum yield of 0.00019.

As for `CCCN1/C(=C/C=C(/C=C/C2=[N+](CCC)c3ccccc3C2(C)C)c2ccncc2)C(C)(C)c2ccccc21`, the photoluminescence quantum yield by setting is: (in CO) 0.24; (in CS(C)=O) 0.15; (in O) 0.07.

Under “in ClCCl”, `CN(C)c1ccc(-c2cccc3nsnc23)cc1` gave a photoluminescence quantum yield of 0.47.

In turn, `Cc1nnc(-c2cc(-n3c4ccccc4c4ccccc43)c(-n3c4ccccc4c4ccccc43)cc2-c2nnc(C)o2)o1` had a photoluminescence quantum yield (in Cc1ccccc1) of 0.287.

For `CC1=[N+]2C(=C(c3ccc(C=O)cc3)c3ccc(C)n3[B-]2(F)F)C=C1c1cc2n(c1)[B-](F)(F)[N+]1=CC=CC1=C2c1c(C)cc(C)cc1C`, the photoluminescence quantum yield amounted to 0.92 (in C1CCCCC1) and 0.2 (in CCOC(C)=O).

Consider `CCOC(=O)c1c2c3c(ccc([N+](=O)[O-])c3c3cc4ccccc4cc13)N(C)C2=O`, for which, for the setting “in CC#N”, the photoluminescence quantum yield stood at 0.41.

Consider `CCC1=C(C)C2=C(c3cc(C(=O)Cl)cc(C(=O)Cl)c3)c3c(C)c(CC)c(C)n3[B-](F)(F)[N+]2=C1C`, for which the photoluminescence quantum yield is, setting by setting: (in C1CCOC1) 0.61; (in CC#N) 0.22; (in CN(C)C=O) 0.39; (in Cc1ccccc1) 0.57; (in ClC(Cl)Cl) 0.53.

`c1csc(-c2ccc3c4ccc(-c5cccs5)cc4n(-c4cccs4)c3c2)c1` showed a photoluminescence quantum yield (in ClCCl) of 0.21.

Consider `C=Cc1cccc(OC)c1`, for which the photoluminescence quantum yield by setting is: (in C1CCCCC1) 0.32; (in CC#N) 0.28.

These data come from the Deep4Chem optical property database.
